The test system of this assay is P. falciparum. The following applies: in vivo.

In the case of “Asn-Pro-Asn-Ala-Asn-(Apro-Asn-Ala-Asn-Pro-Asn-Ala-Asn-Pro-Asn-Glu)cyclo-Asn-Pro-Asn-Ala attached to a PE moiety [UK39]”, the Antigenicity result is “excellent”.

Source of the values: US7569541B2 (priority 2003, dated 2009).
